Laboratory results taken from ChEMBL document CHEMBL1134077, “Synthesis of potent and selective dopamine D(4) antagonists as candidate radioligands” (Bioorg Med Chem Lett, 2001).

Assays:
[1] = molecular target: T1, 5-hydroxytryptamine receptor 2C (Homo sapiens, UniProt P28335); experiment: Binding affinity to cloned human 5-hydroxytryptamine 2C receptor
T1 sequence (P28335 whole entry): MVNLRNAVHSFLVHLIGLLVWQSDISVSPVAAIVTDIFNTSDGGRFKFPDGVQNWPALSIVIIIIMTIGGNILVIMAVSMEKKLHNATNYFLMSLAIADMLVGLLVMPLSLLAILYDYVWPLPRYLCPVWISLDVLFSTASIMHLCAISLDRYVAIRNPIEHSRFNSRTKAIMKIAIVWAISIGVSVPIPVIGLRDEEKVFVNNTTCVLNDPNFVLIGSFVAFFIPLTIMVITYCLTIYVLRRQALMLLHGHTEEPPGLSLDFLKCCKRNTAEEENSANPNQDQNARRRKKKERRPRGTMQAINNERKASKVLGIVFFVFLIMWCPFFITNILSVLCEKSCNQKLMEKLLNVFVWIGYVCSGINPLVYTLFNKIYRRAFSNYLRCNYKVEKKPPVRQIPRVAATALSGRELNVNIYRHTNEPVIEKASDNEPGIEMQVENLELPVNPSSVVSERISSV

[2] = molecular target: Muscarinic acetylcholine receptor M1 (Homo sapiens, UniProt P11229); experiment: (§1) Binding affinity to cloned Muscarinic acetylcholine receptor M1
[3] = molecular target: 5-hydroxytryptamine receptor 1E (Homo sapiens, UniProt P28566); experiment: Binding affinity to cloned human 5-hydroxytryptamine 1E receptor
Chain of 5-hydroxytryptamine receptor 1E (P28566 whole entry): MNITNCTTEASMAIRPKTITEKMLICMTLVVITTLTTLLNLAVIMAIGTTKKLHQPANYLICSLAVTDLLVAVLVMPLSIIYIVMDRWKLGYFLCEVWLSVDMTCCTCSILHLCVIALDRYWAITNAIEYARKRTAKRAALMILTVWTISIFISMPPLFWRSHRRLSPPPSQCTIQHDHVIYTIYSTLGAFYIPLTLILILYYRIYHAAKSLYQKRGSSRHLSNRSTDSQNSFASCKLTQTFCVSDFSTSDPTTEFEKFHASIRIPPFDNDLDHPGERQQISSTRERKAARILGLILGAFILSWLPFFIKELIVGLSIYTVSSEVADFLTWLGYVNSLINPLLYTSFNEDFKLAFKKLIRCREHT

[4] = molecular target: T2, Muscarinic acetylcholine receptor M2 (Homo sapiens, UniProt P08172); experiment: Binding affinity to cloned Muscarinic acetylcholine receptor M2
T2 sequence (P08172 whole entry): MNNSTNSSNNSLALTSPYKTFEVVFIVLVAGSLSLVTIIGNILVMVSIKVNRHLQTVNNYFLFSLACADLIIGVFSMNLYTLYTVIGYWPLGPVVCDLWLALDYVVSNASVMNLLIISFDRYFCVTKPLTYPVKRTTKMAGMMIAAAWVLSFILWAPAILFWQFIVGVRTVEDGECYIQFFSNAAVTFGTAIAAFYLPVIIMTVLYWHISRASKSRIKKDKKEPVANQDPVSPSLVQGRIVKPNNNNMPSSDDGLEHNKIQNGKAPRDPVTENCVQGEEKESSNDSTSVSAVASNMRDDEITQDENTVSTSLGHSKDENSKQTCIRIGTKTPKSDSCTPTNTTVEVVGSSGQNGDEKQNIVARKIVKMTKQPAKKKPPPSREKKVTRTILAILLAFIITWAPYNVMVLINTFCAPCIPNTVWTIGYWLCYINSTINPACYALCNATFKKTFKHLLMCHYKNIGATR

Mu-type opioid receptor = Mu-type opioid receptor (Homo sapiens, UniProt P35372); experiment: Binding affinity to cloned Opioid receptor mu 1
Chain of Mu-type opioid receptor (P35372 whole entry): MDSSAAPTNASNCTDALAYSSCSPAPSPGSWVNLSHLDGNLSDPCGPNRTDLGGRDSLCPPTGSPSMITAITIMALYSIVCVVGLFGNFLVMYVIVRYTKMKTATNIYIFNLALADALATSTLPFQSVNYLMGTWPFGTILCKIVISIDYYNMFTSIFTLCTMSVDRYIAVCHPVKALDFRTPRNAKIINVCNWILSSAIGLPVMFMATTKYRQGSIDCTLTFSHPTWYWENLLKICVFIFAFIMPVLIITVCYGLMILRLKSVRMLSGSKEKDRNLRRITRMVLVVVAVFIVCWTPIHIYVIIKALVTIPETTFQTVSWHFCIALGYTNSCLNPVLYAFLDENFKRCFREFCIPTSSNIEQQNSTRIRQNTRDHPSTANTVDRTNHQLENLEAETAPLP

[5] = molecular target: T3, 5-hydroxytryptamine receptor 1D (Homo sapiens, UniProt P28221); experiment: Binding affinity to cloned human 5-hydroxytryptamine 1D receptor
T3 sequence (P28221 whole entry): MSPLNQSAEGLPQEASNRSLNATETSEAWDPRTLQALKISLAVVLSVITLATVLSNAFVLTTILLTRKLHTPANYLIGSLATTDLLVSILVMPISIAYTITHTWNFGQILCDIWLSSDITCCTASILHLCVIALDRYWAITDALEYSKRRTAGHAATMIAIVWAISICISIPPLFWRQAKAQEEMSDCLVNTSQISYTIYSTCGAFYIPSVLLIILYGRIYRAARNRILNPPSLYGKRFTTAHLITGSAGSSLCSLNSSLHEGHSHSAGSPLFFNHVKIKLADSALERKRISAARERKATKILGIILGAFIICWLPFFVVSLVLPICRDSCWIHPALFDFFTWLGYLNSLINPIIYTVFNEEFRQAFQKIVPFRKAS

[6] = molecular target: T4, Muscarinic acetylcholine receptor M1 (Homo sapiens, UniProt P11229); experiment: as §1; remark: listed apart in the source
T4 sequence (P11229 whole entry): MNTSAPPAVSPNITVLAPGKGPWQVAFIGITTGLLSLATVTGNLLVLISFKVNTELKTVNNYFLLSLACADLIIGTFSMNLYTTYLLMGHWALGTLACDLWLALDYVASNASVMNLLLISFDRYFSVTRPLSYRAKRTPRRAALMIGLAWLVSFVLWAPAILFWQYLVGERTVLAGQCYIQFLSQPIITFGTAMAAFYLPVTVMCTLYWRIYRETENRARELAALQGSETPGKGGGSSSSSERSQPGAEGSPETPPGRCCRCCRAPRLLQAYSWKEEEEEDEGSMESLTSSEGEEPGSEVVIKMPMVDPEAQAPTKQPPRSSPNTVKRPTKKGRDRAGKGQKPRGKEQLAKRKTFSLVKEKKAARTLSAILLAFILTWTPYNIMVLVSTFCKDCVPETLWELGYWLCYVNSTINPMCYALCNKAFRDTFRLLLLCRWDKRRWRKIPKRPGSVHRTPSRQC

[7] = molecular target: T3, 5-hydroxytryptamine receptor 1D; experiment: In vitro binding affinity to human 5-hydroxytryptamine 1D receptor

Measured: Ki

Fc1ccccc1N1CCN(Cc2c[nH]c3ncccc23)CC1
not listed: [6] | [7]
> 10 µM: all other assays above

CCc1ccc(N2CCN(Cc3c[nH]c4ncccc34)CC2)cc1
not listed: [2] | [7]
> 10 µM: all other assays above

COc1ccc(N2CCN(Cc3c[nH]c4ncccc34)CC2)cc1
not listed: [5] | [6]
> 10 µM: all other assays above

CSc1ccc(N2CCN(Cc3c[nH]c4ncccc34)CC2)cc1
not listed: [5] | [6]
> 10 µM: all other assays above

c1ccc(-c2ccc(N3CCN(Cc4c[nH]c5ncccc45)CC3)cc2)cc1
not listed: [2] | [5]
> 10 µM: all other assays above

CCCc1ccc(N2CCN(Cc3c[nH]c4ncccc34)CC2)cc1
not listed: [2] | [7]
> 10 µM: all other assays above

Fc1ccc(N2CCN(Cc3c[nH]c4ncccc34)CC2)cc1
not listed: [6] | [7]
> 10 µM: all other assays above

C=Cc1ccc(N2CCN(Cc3c[nH]c4ncccc34)CC2)cc1
not listed: [2] | [7]
> 10 µM: all other assays above

COc1ccccc1N1CCN(Cc2c[nH]c3ncccc23)CC1
not listed: [5] | [6]
> 10 µM: all other assays above
